As usually defined, the IC50 is the concentration that gives 50% inhibition.

One assay concerns saphenous artery rings. As to the kind of experiment: Vasorelaxant effect in vitro (phenylephrine-contracted artery rings). It counts as cell-based, Rabbits. The note with it: rabbit saphenous artery rings, contraction induced by phenylephrine. As for the experimental part:
B-1. Vasorelaxant Effect In Vitro:
Rabbits are anaesthetized and sacrificed by intravenous injection of thiopental sodium (about 50 mg/kg) and exsanguinated. The saphenous artery is removed and divided into rings 3 mm wide. The rings are mounted singly on in each case a pair of triangular hooks open at the end and made of 0.3 mm-thick special wire (Remanium®). Each ring is placed under an initial tension in 5 ml organ baths with Krebs-Henseleit solution which is at 37° C., is gassed with 95% O2/5% CO2 and has the following composition: NaCl 119 mM; KCl 4.8 mM; CaCl2×2H2O 1 mM; MgSO4×7H2O 1.4 mM; KH2PO4 1.2 mM; NaHCO3 25 mM; glucose 10 mM; bovine serum albumin 0.001%. The force of contraction is detected with Statham UC2 cells, amplified and digitized via A/D converters (DAS-1802 HC, Keithley Instruments, Munich) and recorded in parallel on chart recorders. Contractions are induced by addition of phenylephrine.
After several (generally 4) control cycles, the substance to be investigated is added in each further run in increasing dosage, and the height of the contraction achieved under the influence of the test substance is compared with the height of the contraction reached in the last preceding run. The concentration necessary to reduce the contraction reached in the preceding control by 50% is calculated from this (IC50). The standard application volume is 5 μl. The proportion of DMSO in the bath solution corresponds to 0.1%.

For assay [1], the target named is T1, Haem-containing sGC (recombinant soluble guanylate cyclase) (Rattus norvegicus, UniProt P20595).
T1 construct: made in house; host or cells: Sf9 insect cells (baculovirus)
T1 sequence (P20595 1-619): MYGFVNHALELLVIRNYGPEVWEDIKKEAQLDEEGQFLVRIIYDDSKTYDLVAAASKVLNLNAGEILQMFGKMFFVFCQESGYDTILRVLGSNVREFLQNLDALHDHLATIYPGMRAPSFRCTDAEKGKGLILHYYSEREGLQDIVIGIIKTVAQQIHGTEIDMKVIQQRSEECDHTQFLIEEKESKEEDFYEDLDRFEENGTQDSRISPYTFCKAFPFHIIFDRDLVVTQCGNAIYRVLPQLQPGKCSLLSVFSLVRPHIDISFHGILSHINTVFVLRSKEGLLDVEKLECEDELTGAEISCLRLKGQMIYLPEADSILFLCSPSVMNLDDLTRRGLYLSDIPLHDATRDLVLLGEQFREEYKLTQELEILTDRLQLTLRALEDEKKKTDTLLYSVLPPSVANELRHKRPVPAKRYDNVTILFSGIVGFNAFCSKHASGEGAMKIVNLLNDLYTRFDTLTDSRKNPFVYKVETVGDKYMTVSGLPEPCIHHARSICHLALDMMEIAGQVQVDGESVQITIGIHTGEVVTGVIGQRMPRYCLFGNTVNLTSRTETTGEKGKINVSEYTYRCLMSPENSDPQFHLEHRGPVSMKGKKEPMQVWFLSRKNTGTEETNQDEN
T1 sequence (P19686 1-690 partner): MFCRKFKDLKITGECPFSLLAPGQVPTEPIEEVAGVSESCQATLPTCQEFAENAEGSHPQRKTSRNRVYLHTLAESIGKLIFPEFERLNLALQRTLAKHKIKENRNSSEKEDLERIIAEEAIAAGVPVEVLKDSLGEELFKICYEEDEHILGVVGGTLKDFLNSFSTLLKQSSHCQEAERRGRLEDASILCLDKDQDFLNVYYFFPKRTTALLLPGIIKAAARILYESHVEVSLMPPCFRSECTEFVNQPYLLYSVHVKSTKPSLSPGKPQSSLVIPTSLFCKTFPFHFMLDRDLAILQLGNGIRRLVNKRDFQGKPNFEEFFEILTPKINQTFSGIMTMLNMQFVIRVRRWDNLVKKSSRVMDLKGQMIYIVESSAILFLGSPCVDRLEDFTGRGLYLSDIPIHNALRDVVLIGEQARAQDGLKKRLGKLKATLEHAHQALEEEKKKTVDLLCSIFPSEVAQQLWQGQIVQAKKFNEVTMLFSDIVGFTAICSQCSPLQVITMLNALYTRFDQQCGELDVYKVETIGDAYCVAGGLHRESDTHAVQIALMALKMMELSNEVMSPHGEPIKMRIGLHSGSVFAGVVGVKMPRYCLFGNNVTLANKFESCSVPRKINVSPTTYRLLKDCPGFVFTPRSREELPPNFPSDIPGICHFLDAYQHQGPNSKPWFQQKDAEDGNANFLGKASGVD
Nature of the assay: Stimulation of recombinant soluble guanylate cyclase (sGC) in vitro, haem-containing enzyme. It counts as biochemical. The source says:
(§1) B-2. Stimulation of Recombinant Soluble Guanylate Cyclase (sGC) In Vitro:
Hoenicka, E. M. Becker, H. Apeler, T. Sirichoke, H. Schroeder, R. Gerzer and J.-P. Stasch, “Purified soluble guanylyl cyclase expressed in a baculovirus/Sf9 system: Stimulation by YC-1, nitric oxide, and carbon oxide”, J. Mol. Med. 77 (1999), 14-23. The haem-free guanylate cyclase is obtained by adding Tween 20 to the sample buffer (0.5% in the final concentration).
(§2) The activation of sGC by a test substance is reported as n-fold stimulation of the basal activity.

For assay [2], the target named is T2, Haem-free sGC (recombinant soluble guanylate cyclase) (Rattus norvegicus, UniProt P20595).
T2 construct: made in house; host or cells: Sf9 insect cells (baculovirus)
T2 sequence (P20595 1-619): T1 sequence (P20595 1-619)
T2 sequence (P19686 1-690 partner): T1 sequence (P19686 1-690 partner)
Nature of the assay: Stimulation of recombinant soluble guanylate cyclase (sGC) in vitro, haem-free enzyme. It counts as biochemical. On the procedure:
as §1
Investigations on the stimulation of recombinant soluble guanylate cyclase (sGC) by the compounds according to the invention with and without sodium nitroprusside, and with and without the haem-dependent sGC inhibitor 1H-1,2,4-oxadiazole-(4,3a)-quinoxalin-1-one (ODQ) are carried out by the method described in detail in the following reference: M. Hoenicka, E. M. Becker, H. Apeler, T. Sirichoke, H. Schroeder, R. Gerzer and J.-P. Stasch, “Purified soluble guanylyl cyclase expressed in a baculovirus/Sf9 system: Stimulation by YC-1, nitric oxide, and […]”, J. Mol. Med. 77 (1999), 14-23. The haem-free guanylate cyclase is obtained by adding Tween 20 to the sample buffer (0.5% in the final concentration).
as §2

For the next assay, the system named is conscious SH rats. Nature of the assay: Radiotelemetric measurement of blood pressure and heart rate on conscious SH rats. It counts as in vivo, spontaneously hypertensive rats (SH rats). Conditions: oral administration of 0.3 mg/kg. The source says:
B-3. Radiotelemetric Measurement of Blood Pressure and Heart Rate on Conscious SH Rats
A commercially available telemetry system from Data Sciences International DSI, USA, is employed for the measurements on conscious SH rats described below.
The system consists of 3 main components: (1) implantable transmitter, (2) receiver which is linked via a multiplexer to a (3) data acquisition computer. The telemetry system makes it possible to record continuously the blood pressure and heart rate on conscious animals in their usual habitat.
The investigations are carried out on adult female spontaneously hypertensive rats (SH rats) with a body weight of >200 g. After transmitter implantation, the experimental animals are housed singly in type 3 Makrolon cages. They have free access to standard feed and water. […]
The telemetry measuring unit is configured for 24 animals. Each experiment is recorded under an experiment number.
Each of the instrumented rats living in the system is assigned a separate receiving antenna (1010 Receiver, DSI). […] The emitted signals can be detected online by a data acquisition system (Dataquest™ A.R.T. for Windows, DSI) and be appropriately processed. […]
In the standard procedure, the following are measured for 10-second periods in each case: (1) systolic blood pressure (SBP), (2) diastolic blood pressure (DBP), (3) mean arterial pressure (MAP) and (4) heart rate (HR). […]

Regarding `O=C(O)c1ccc(CCC(/C=C/c2ccccc2OCCCCCc2ccccc2)Cc2ccc(C(=O)O)cc2)cc1` (racemic) [Example 5, 4-((4E)-3-(4-Carboxybenzyl)-5-{2-[(5-phenylpentyl)oxy]phenyl}pent-4-en-1-yl)benzoic Acid], in the assay with saphenous artery rings, the IC50 turned out to be 4.9 nM. The “Stimulation (n-fold) Haem-containing sGC Basal” value in assay [1] (0.001 μM Example 5) came to 3.5 n-fold; in assay [1] (0.01 μM Example 5), 17.2 n-fold; in assay [1] (0.1 μM Example 5) it was 35.1 n-fold; in assay [1] (1 μM Example 5), 44.2 n-fold; in assay [1] (10 μM Example 5), 59.5 n-fold. Moreover, the “Stimulation (n-fold) Haem-containing sGC +0.1 μM DEA/NO” value in assay [1] (0.001 μM Example 5 +0.1 μM DEA/NO) is recorded as 88.3 n-fold; in assay [1] (0.01 μM Example 5 +0.1 μM DEA/NO), 102.9 n-fold; in assay [1] (0.1 μM Example 5 +0.1 μM DEA/NO), 123.1 n-fold; in assay [1] (1 μM Example 5 +0.1 μM DEA/NO) it was 124.1 n-fold; in assay [1] (10 μM Example 5 +0.1 μM DEA/NO), 152.0 n-fold. The “Stimulation (n-fold) Haem-containing sGC +10 μM ODQ” value is on record as 40.3 n-fold in assay [1] (0.001 μM Example 5 +10 μM ODQ); 83.0 n-fold in assay [1] (0.01 μM Example 5 +10 μM ODQ); 149.5 n-fold in assay [1] (0.1 μM Example 5 +10 μM ODQ); 162.1 n-fold in assay [1] (1 μM Example 5 +10 μM ODQ); 171.2 n-fold in assay [1] (10 μM Example 5 +10 μM ODQ). Also, the “Synergy of combination with NO donor DEA/NO on sGC stimulation” value in assay [1] (combination with DEA/NO) was “no synergistic effect”. The “Stimulation (n-fold) Haem-free sGC Basal” value in assay [2] (0.001 μM Example 5) was found to be 19.2 n-fold; in assay [2] (0.01 μM Example 5), 105.8 n-fold; in assay [2] (0.1 μM Example 5), 185.3 n-fold; in assay [2] (1 μM Example 5), 201.2 n-fold; in assay [2] (10 μM Example 5), 203.1 n-fold. Besides, the “Stimulation (n-fold) Haem-free sGC +10 μM ODQ” value in assay [2] (0.001 μM Example 5 +10 μM ODQ) came out at 18.4 n-fold; in assay [2] (0.01 μM Example 5 +10 μM ODQ) it was 100.5 n-fold; in assay [2] (0.1 μM Example 5 +10 μM ODQ) it was 170.4 n-fold; in assay [2] (1 μM Example 5 +10 μM ODQ) it was 189.2 n-fold; in assay [2] (10 μM Example 5 +10 μM ODQ) it was 180.7 n-fold.
In the assay on saphenous artery rings (Oryctolagus cuniculus), `CCCCCCOc1ccccc1/C=C/C(CCc1ccc(C(=O)O)cc1)Cc1ccc(C(=O)O)cc1` (racemic) [Example 20, 4-{(4E)-3-(4-Carboxybenzyl)-5-[2-(hexyloxy)phenyl]pent-4-en-1-yl}benzoic Acid] had an IC50 of 0.7 nM. Moreover, in the assay with conscious SH rats, the “Period of blood pressure reduction” value was determined as 11 h and the “Reduction in blood pressure” value was “marked reduction in blood pressure”.

The record behind these values is patent US8609727B2, “Dicarboxylic acid derivatives and their use” (Bayer Intellectual Property GmbH, priority 2005, dated 2013).
